Laboratory results reported in publication PMC10570359, “Dietary supplementation of cystinotic mice by lysine inhibits the megalin pathway and decreases kidney cystine content” (Scientific Reports, 2023).

Columns and labels:
[1] = test system: kidney proximal tubular cells; experiment: In vivo endocytic tracing with TexasRed-ovalbumin in WT mice; details: 3 weeks diet
Description: We also examined whether apical endocytic trafficking of megalin cargo could be blocked under 5x-L-lysine, using apical endocytic tracing in WT mice with the fluorescent megalin ligand, TexasRed-ovalbumin (TxR-OVA). Normally, mice feed at night hours. To optimize PT exposure to ingested lysine during endocytic tracing performed at day hours, mice were first reprogrammed by adaptation to inverted […]. […] This implied that the extent of competition in cortical PTCs could be greatly underestimated by measured LMWPuria. At higher magnification, contacts of TxR-OVA labeled apical endosomes with lysosomes in cortical PTCs were still visible under 5X-L-Lysine, arguing against a major impairment of apical endosomal trafficking (Fig. 4b). […]
(§1) For in vivo endocytic tracing in PTCs, Texas Red-ovalbumin (300 µg, Invitrogen #O23021) was injected intravenously at 20 min before sacrifice. […] Proliferative events in kidney cortex were quantified as described. […] Histological PAS staining and quantification of the frequency of swan-neck lesions were performed as described. Sirius Red staining of paraffine sections and morphometry in total sagittal kidney sections after conversion to red fluorescence were performed as described[53],[54].

Ctns KO mice kidneys = experiment: Kidney histology (swan-neck lesions, Sirius-red fibrosis) in Ctns KO mice; assay type: in vivo; details: primary prevention, diet from 2-to-6 months-of-age, control diet ~ 80%
From the text: By histological survey, no obvious change was evidenced after HE or PAS staining (Supplemental Fig. 4a). We thus scored the abundance of characteristic swan-neck lesions at the glomerulo-tubular junction, a quantitative marker disease, and again found no detectable protection (Supplemental Fig. 4b). However, at 6-months-of-age as baseline, most junctions were already altered (~ 80%), leaving little scope for a potential benefit. […] To look for fibrosis, histological sections at 8 months-of-age were stained with Sirius-red; its signal was automatically divided into three intensity levels over the entire kidney cortex. This quantification disclosed no detectable decrease of Sirius-red staining, thus fibrosis, upon dAAs at this interval (Supplemental Fig. 4c,d).
as §1, with “described[53],[54]. […]” for “described[53],[54].”
Fo r the significance of swan-necks, please see [26]. Fo r more information on swan-neck quantification, see [22]. […]

cystinotic rat model = experiment: 5x-L-lysine diet in cystinotic rat model (preliminary, not shown); assay type: in vivo; details: preliminary results (not shown)
[2] = test system: kidney proximal tubular cells; details: Ctns KO mice kidneys at 8 months of age
Description: At cellular level, we assessed PT cell death linked to compensatory renewal, by measuring Ki-67 immunolabelling abundance, a validated proliferation index (Fig. 6a)[22].
(a) Proliferative events in PTCs were identified by Ki-67 immunolabelling in confocal images and scored over random fields to cumulative areas of 0.96 mm^2.
For immunofluorescence, antigen retrieval was promoted in citrate buffer, pH 6, at 95 °C for 20 min using a Lab Vision Pretreatment Module™ (Thermo Scientific). Tissue was permeabilized with PBS/0.3% Triton-X100 for 5 min, then for one further hour with 10% bovine serum albumin (BSA)/3% milk to block non-specific sites. […] After washing, sections were further incubated with the appropriate AlexaFluor-secondary antibodies for 1 h at room temperature in 10% BSA/0.3% Triton-X100 and mounted with Faramount aqueous mounting medium (Dako). Sections were imaged on a spinning disk confocal microscope using EC Plan-NeoFluar 40X/1.3 or 100x/1.4 Oil DIC objective (Cell Observer Spinning Disk; Zeiss). Proliferative events in kidney cortex were quantified as described[22].

[3] = test system: kidney tubular reabsorption of LMWPs; set-up: method as in PMID 98829; details: humans, intravenous injection; cited from earlier work
megalin and cubilin = test system: megalin and cubilin; set-up: method as in PMID 16508656; details: rats, cited from earlier work
[4] = Tolerance of prolonged 5x-dAA diets in mice; details: ad libitum 5x-supplemented solid diet, approx. 45 mmoles/kg/day
From the text: Ctns knockout mice (C57BL/6 background) were kindly provided by Dr. Corinne Antignac[18]. […] The same increase was set for L- (and D-) lysine.

Compound: NCCCC[C@H](N)C(=O)O [5x-L-lysine, L-lysine]
- distribution of endocytic load from S1/S2 (cortex) to S3 segment (outer medulla) ([1]; inverted light cycle): strong redistribution
- TxR-OVA fluorescence intensity in cortical PTCs ([1]; inverted light cycle (reprogrammed feeding hours), 20 min after injection): greatly decreased
- swan-neck frequency at 6 months-of-age (Ctns KO mice kidneys): ~ 20%
- Fanconi syndrome (cystinotic rat model): serious worsening
- kidney cystine accumulation (cystinotic rat model): considerably decreased
- Ki-67 proliferation index in PTCs [2]: undistinguishable
- impact on glomerular filtration [3]: no impact
- inhibition of kidney tubular reabsorption of LMWPs [3]: dose-dependent (up to complete) inhibition
- tolerance (megalin and cubilin; 1-day gavage, 80 mmoles/kg): well tolerated
- LMWPuria (megalin and cubilin; gavage for one day): prominent LMWPuria
- localization of megalin and cubilin in PTCs (megalin and cubilin; gavage for one day, from base of brush border to brush border itself): striking relocation
- tolerance of prolonged diet [4]: well tolerated
